Experimental data from ChEMBL document CHEMBL6109120, “Discovery of Novel SIK2/3 Inhibitors for the Potential Treatment of MEF2C+ Acute Myeloid Leukemia (AML)” (J Med Chem, 2025).

Experiments:
[1] = biological target: T1, Cyclin-G-associated kinase (Homo sapiens, UniProt O14976)
T1 sequence (O14976 whole entry): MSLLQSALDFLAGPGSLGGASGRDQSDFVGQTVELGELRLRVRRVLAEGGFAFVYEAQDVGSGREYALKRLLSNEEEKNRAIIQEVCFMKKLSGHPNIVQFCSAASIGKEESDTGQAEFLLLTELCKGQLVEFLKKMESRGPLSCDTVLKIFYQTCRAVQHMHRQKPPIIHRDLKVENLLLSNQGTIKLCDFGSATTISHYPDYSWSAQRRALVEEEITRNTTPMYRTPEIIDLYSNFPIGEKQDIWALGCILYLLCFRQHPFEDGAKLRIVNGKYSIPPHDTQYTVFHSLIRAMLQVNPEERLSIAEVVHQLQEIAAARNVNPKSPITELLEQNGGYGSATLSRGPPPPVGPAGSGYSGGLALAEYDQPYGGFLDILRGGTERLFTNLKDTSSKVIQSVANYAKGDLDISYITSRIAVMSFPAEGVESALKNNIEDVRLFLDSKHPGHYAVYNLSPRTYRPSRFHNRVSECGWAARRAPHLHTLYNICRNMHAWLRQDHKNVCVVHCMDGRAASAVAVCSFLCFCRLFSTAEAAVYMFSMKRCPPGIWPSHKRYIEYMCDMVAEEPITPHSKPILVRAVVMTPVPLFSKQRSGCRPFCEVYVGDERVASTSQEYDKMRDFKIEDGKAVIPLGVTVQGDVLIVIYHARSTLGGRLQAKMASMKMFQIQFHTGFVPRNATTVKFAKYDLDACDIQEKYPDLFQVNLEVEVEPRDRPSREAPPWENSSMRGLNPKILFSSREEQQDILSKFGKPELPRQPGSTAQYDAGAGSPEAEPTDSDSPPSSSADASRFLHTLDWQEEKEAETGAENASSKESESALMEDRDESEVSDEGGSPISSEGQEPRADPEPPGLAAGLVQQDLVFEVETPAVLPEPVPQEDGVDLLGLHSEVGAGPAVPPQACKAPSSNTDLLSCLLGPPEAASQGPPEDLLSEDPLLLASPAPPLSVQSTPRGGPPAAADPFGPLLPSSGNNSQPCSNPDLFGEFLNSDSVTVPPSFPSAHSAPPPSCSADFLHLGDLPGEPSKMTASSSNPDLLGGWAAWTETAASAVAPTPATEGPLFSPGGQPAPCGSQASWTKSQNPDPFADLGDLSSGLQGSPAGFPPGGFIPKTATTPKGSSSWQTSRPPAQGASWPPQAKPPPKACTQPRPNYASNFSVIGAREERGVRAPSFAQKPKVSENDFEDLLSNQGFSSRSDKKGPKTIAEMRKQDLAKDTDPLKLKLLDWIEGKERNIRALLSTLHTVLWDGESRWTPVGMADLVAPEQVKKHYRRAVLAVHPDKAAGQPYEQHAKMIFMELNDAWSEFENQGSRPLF
Description: Binding affinity to human GAK by KINOMEscan assay

[2] = biological target: T2, Dual specificity mitogen-activated protein kinase kinase 5 (Homo sapiens, UniProt Q13163)
T2 sequence (Q13163 whole entry): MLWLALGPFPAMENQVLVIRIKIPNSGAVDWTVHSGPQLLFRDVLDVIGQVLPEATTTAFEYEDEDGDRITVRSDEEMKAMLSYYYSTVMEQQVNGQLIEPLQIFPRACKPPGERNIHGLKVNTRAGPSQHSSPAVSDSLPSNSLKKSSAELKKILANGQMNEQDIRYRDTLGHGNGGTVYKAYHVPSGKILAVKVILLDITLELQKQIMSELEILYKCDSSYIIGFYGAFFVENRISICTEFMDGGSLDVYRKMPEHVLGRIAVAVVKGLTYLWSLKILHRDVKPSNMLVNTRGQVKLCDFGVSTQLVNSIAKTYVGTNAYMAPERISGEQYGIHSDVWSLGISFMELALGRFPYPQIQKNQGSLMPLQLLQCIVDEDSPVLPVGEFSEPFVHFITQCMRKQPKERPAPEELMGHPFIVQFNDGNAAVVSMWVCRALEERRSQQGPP
Description: Binding affinity to human MEK5 by KINOMEscan assay

[3] = biological target: T3, Serine/threonine-protein kinase TBK1 (Homo sapiens, UniProt Q9UHD2)
T3 sequence (Q9UHD2 whole entry): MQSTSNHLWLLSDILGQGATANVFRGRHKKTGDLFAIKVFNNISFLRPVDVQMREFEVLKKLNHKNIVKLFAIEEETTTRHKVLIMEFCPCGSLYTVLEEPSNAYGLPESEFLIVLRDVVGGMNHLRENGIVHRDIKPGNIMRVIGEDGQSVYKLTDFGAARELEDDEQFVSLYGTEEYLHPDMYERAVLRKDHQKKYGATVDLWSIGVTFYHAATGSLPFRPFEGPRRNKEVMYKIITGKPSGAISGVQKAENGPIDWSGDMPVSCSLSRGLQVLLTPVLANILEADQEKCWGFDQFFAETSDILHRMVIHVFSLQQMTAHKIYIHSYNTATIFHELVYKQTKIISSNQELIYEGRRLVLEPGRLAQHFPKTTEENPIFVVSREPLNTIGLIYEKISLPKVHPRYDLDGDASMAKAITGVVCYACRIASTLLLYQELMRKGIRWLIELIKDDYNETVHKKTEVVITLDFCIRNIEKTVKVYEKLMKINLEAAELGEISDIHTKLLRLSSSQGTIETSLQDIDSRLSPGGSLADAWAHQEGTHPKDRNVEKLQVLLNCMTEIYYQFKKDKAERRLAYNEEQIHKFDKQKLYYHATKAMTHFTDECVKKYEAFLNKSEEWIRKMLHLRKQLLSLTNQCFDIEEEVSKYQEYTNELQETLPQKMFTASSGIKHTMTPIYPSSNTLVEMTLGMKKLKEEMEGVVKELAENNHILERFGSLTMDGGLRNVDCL
Description: Binding affinity to human TBK1 by KINOMEscan assay

Cytochrome P450 1A2 = biological target: T4, Cytochrome P450 1A2 (Homo sapiens, UniProt P05177); assay: Inhibition of CYP1A2 in human liver microsomes assessed as Phenacetin O-deethylation reaction measured after 30 mins by LC/MS/MS analysis; assay type: ADME, Microsome
T4 sequence (P05177 whole entry): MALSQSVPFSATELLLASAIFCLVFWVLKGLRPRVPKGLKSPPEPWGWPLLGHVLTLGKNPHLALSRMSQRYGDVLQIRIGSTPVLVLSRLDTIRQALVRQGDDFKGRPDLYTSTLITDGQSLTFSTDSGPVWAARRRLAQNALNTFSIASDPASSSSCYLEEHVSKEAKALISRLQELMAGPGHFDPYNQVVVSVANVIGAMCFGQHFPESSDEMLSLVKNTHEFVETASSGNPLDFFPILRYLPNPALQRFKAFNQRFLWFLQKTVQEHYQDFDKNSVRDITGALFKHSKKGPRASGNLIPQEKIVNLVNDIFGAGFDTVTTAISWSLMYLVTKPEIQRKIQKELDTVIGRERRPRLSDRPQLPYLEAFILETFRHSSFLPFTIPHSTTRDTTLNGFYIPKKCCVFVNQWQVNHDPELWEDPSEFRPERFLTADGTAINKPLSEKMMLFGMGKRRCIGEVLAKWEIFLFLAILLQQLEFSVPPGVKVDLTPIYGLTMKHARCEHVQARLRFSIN

`COc1nc(-c2cc(-c3cnn(C)c3)cnc2N)cc2c1C(=O)N(CC(F)(F)F)CC2` gave an IC50 [1] of 492 nM, an IC50 [2] of 2650 nM and an IC50 [3] of 230 nM. It also gave an IC50 (Cytochrome P450 1A2) greater than 50000 nM.
